# Experimental data from patent US20050250677A1, “Glycopeptide antibiotic derivatives” (priority 2002, published 2005).
# Like-named read-outs stand apart in the source and are kept apart here.
# How the values were obtained:
# HIV [1] = experiment: Time of addition experiment (HIV); format: cell-based
# HIV-1 (IIIB) [2] = experiment: Inhibition of HIV-1 (IIIB)-induced cytopathicity (giant cell formation) in CEM cells; format: cell-based
# Description: (§1) A variety of glycopeptide antibiotic derivatives of vancomycin, eremomycin and teicoplanin including their aglycon derivatives were evaluated for their inhibitory activity against HIV-1 (IIIB) and HIV-2(ROD) in CEM cell cultures.
# HIV-2(ROD) = experiment: Inhibition of HIV-2 (ROD)-induced cytopathicity (giant cell formation) in CEM cells; format: cell-based; settings: read-out: EC50 HIV-2 (concentration required to inhibit HIV-induced giant cell formation by 50%); HIV-2, CEM cell cultures
# Description: as §1
# HIV [3] = experiment: Selection of resistant HIV strains in cell culture; format: cell-based; settings: ≧9 weeks of attempts in cell culture
# murine leukemia L1210 = experiment: Cytostatic activity assay, L1210 cells; format: cell-based; settings: read-out: IC50 L1210 (compound concentration required to inhibit tumor cell proliferation by 50%)
# [4] = test system: human lymphocyte Molt4/clone 8; experiment: Cytostatic activity assay, Molt4/clone 8 cells; format: cell-based; settings: read-out: IC50 Molt4/C8 (compound concentration required to inhibit tumor cell proliferation by 50%)
# human lymphocyte CEM = experiment: Cytostatic activity assay, CEM cells; format: cell-based
# [5] = test system: SARS virus (strain Frankfurt-1); experiment: microbe, parasite or virus in culture; format: cell-based, human corona (SARS) virus; settings: read-out: EC50 SARS virus
# HIV-1 (HE) = experiment: Inhibition of HIV-1 (HE)-induced cytopathicity in CEM/0 cells; format: cell-based
# HIV-1 (IIIB) [6] = experiment: Inhibition of HIV-1 (IIIB)-induced cytopathicity in C8166 cells; format: cell-based
# [7] = test system: mutant HIV-1 strain Leu-100-Ile; experiment: Anti-HIV-1 activity against mutant HIV-1 strain Leu-100-Ile in CEM cultures; format: cell-based
# HIV-2 (EHO) = settings: read-out: EC50 CEM/0 HIV-2 (EHO); CEM/0 cells
# Description: (§2) Inhibition of HIV-1 (IIIB, HE, HN) and HIV-2(ROD, EHO, RF)-induced cytopathicity in CEM or C8166 or Molt4/C8 cells was measured in microtiter 96-well plates containing ˜3×10^5 CEM cells/ml, infected with 100 CCID50 of HIV per ml and containing appropriate dilutions of the test compounds. After 4 to 5 days of incubation at 37° C. in a CO2-controlled humidified atmosphere, CEM, C8166 or Molt4/C8 giant (syncytium) cell formation was examined microscopically.
# HIV-2 (RF) = settings: read-out: EC50 CEM/0 HIV-2 (RF); CEM/0 cells
# Description: as §2
# [8] = test system: mutant HIV-1 strain Lys-103-Asn; experiment: Anti-HIV-1 activity against mutant HIV-1 strain Lys-103-Asn in CEM cultures; format: cell-based
# HIV-1(HE) = experiment: Inhibition of HIV-1 (HE)-induced cytopathicity in MOLT4/C8 cells; format: cell-based
# HIV-1 (MN) = experiment: Inhibition of HIV-1 (MN)-induced cytopathicity in CEM/0 cells; format: cell-based
# FCV = experiment: Feline corona virus assay in Feline Crandel kidney cells (MTS); format: cell-based; settings: read-out: EC50 FCV
# Description: Feline Crandel kidney cells were seeded in 96-well microtiter plates at 24,000 cells/well. Then, 24 hrs later, an appropriate inoculum of FCV is added together with 5-fold dilutions of the test compounds. After 4 days, a MTS/PMS solution was added to each well. Following a 90 min incubation period at 37° C., the optical density of the wells was read at 498 nm in a microplate reader.
# Vero cells = settings: read-out: CC50 Vero
# [9] = test system: mutant HIV-1 strain Tyr-188-His; experiment: Anti-HIV-1 activity against mutant HIV-1 strain Tyr-188-His in CEM cultures; format: cell-based
# Description: as §2
# FCK cells = settings: read-out: CC50 FCK; FCK cells
# [10] = test system: mutant HIV-1 strain Tyr-181-Cys; experiment: Anti-HIV-1 activity against mutant HIV-1 strain Tyr-181-Cys in CEM cultures; format: cell-based
# VZV (wild-type strains) = experiment: Anti-VZV assay (wild-type strains): virus-induced cytopathicity in HEL cell cultures; format: cell-based, varicella-zoster virus; settings: HEL cell cultures
# HEL cells [11] = settings: read-out: CC50 (HEL), HEL cells
# CMV = experiment: Anti-CMV assay: virus-induced cytopathicity in HEL cell cultures
# HEL cells [12] = test system: HEL cells
# HIV [13] = experiment: Anti-HIV activity in cell culture, HIV type not distinguished; format: cell-based; settings: read-out: EC50 against HIV
# Description: as §1
# in vitro [14] = settings: monkey (simian)
# in vitro [15] = settings: cat
# [16] = read-out: EC50 HIV-1 (concentration required to inhibit HIV-induced giant cell formation by 50%), HIV-1, CEM cell cultures
# [17] = read-out: IC50 CEM (compound concentration required to inhibit tumor cell proliferation by 50%)
# [18] = CEM cultures, wild type in mutant panel, read-out: EC50 HIV-1 IIIB
# [19] = CEM/0 cells, read-out: EC50 CEM/0 HIV-1 (IIIB)
# [20] = read-out: EC50 CMV AD-169, CMV strain AD-169, HEL cell cultures
# [21] = Severe acute respiratory syndrome coronavirus, Vero
SMILES,EC50 (HIV-1 (IIIB) [2]; [16]),EC50 (HIV-2(ROD)),IC50 (murine leukemia L1210),IC50 [4],IC50 (human lymphocyte CEM; [17]),EC50 (HIV-1 (IIIB) [2]; [18]),EC50 (HIV-1 (IIIB) [2]; [19]),EC50 ([5]; SARS virus in Vero cells),EC50 (HIV-1 (HE)),EC50 [7],EC50 (HIV-2 (EHO)),EC50 (HIV-2 (RF)),EC50 (HIV-1(HE)),EC50 (HIV-1 (MN)),EC50 (FCV; FCV in FCK cells),CC50 (Vero cells),EC50 [9],CC50 (FCK cells),further results
"Cc1cn([C@H]2C[C@H](N=[N+]=[N-])[C@@H](CO)O2)c(=O)[nH]c1=O [AZT, zidovudine]",–,–,–,–,–,–,–,–,–,–,–,–,–,–,–,–,–,–,time post infection up to which addition can be delayed without loss of antiviral activity (HIV [1]): at least 3 h
CCCCCCCCCCNCc1c(O)cc2c(c1O)-c1cc(ccc1O)C1NC(=O)C3NC(=O)C4NC(=O)C(Cc5ccc(c(Cl)c5)Oc5cc3cc(c5O)Oc3ccc(cc3Cl)C(O)C(NC1=O)C(=O)NC2C(=O)NCCCN(C)C)NC(=O)C(N)c1ccc(O)c(c1)Oc1cc(O)cc4c1 (stereo not drawn) [Compound 15],1.4 ± 0.6 µM,6 ± 3.9 µM,48 ± 8 µM,> 100 µM,> 100 µM,–,–,–,–,–,–,–,–,–,–,–,–,–,selection of resistant virus strains (HIV [3]): failed
CN(C)CCCNC(=O)C1NC(=O)C2NC(=O)C(NC(=O)C3NC(=O)C4NC(=O)C(Cc5ccc(c(Cl)c5)Oc5cc3cc(c5O)Oc3ccc(cc3Cl)C2O)NC(=O)C(N)c2ccc(O)c(c2)Oc2cc(O)cc4c2)c2ccc(O)c(c2)-c2c1cc(O)c(CNC1C3CC4CC(C3)CC1C4)c2O (stereo not drawn) [Compound 19],2.5 ± 0.7 µM,8 ± 2.8 µM,> 500 µM,> 500 µM,> 500 µM,6 ± 1.4 µM,6 ± 1.4 µM,23 µM,12 µM,11.5 ± 2.1 µM,15 µM,9.5 ± 3.5 µM,9 ± 1.4 µM,13 ± 2.1 µM,18 µM,> 100 µM,11 ± 1.4 µM,> 50 µM,EC50 (HIV-1 (IIIB) [6]): 9.5 ± 3.5 µM; selection of resistant virus strains (HIV [3]): failed; EC50 [8]: 8.5 ± 2.1 µM; EC50 [10]: 7.5 ± 3.5 µM
CCCCc1ccc(CN2CCN(Cc3c(O)cc4c(c3O)-c3cc(ccc3O)C3NC(=O)C5NC(=O)C6NC(=O)C(Cc7ccc(c(Cl)c7)Oc7cc5cc(c7O)Oc5ccc(cc5Cl)C(O)C(NC3=O)C(=O)NC4C(=O)NCCCN(C)C)NC(=O)C(N)c3ccc(O)c(c3)Oc3cc(O)cc6c3)CC2)cc1 (stereo not drawn) [Compound 30],3 µM,5 ± 1.4 µM,29 ± 7 µM,108 ± 79 µM,> 500 µM,2.8 ± 0.4 µM,2.8 ± 0.4 µM,33 µM,5.5 ± 0.7 µM,6 ± 1.4 µM,11 ± 1.4 µM,3.7 ± 1.25 µM,4.5 ± 0.7 µM,7 µM,9.2 µM,> 100 µM,7.5 ± 0.7 µM,≥ 50 µM,EC50 (HIV-1 (IIIB) [6]): ≥ 5 µM
CCCCc1ccc(CN2CCN(Cc3c(O)cc4c(c3O)-c3cc(ccc3O)C3NC(=O)C5NC(=O)C6NC(=O)C(Cc7ccc(c(Cl)c7)Oc7cc5cc(c7O)Oc5ccc(cc5Cl)C(O)C(NC3=O)C(=O)NC4C(=O)NC)NC(=O)C(N)c3ccc(O)c(c3)Oc3cc(O)cc6c3)CC2)cc1 (stereo not drawn) [Compound 31],1.7 ± 0.42 µM,3 ± 1.4 µM,61 ± 10 µM,> 500 µM,> 500 µM,2.8 ± 0.4 µM,2.8 ± 0.4 µM,24 µM,9.5 ± 3.5 µM,5.3 ± 2.5 µM,6.8 ± 0.35 µM,3.7 ± 1.77 µM,3.7 ± 0.35 µM,6.5 ± 0.7 µM,> 100 µM,> 100 µM,6 ± 1.4 µM,≥ 20 µM,"EC50 (VZV (wild-type strains); VZV strain OKA, read-out: EC50 VZV (OKA)): 0.75 µM; EC50 (VZV (wild-type strains); VZV strain YS, read-out: EC50 VZV (YS)): 0.85 µM; CC50 (HEL cells [11]; anti-CMV table): > 200 µM; CC50 (HEL cells [11]; anti-VZV table): > 200 µM; EC50 (HIV-1 (IIIB) [6]): 6.6 ± 3.06 µM; anti-CMV activity (CMV): anti-CMV activity; EC50 (CMV; [20]): ≥ 20 µM; EC50 (CMV; read-out: EC50 CMV Davis, CMV strain Davis, HEL cell cultures): 10 µM; EC50 [8]: 6 ± 1.4 µM; MTC (HEL) (HEL cells [12]; anti-CMV table): 20 to 50 µM; MTC (HEL) (HEL cells [12]; anti-VZV table): 20 to 50 µM; EC50 [10]: 8.5 ± 2.1 µM"
CNC(=O)C1NC(=O)C2NC(=O)C(NC(=O)C3NC(=O)C4NC(=O)C(Cc5ccc(c(Cl)c5)Oc5cc3cc(c5O)Oc3ccc(cc3Cl)C2O)NC(=O)C(N)c2ccc(O)c(c2)Oc2cc(O)cc4c2)c2ccc(O)c(c2)-c2c1cc(O)c(CNC1C3CC4CC(C3)CC1C4)c2O (stereo not drawn) [Compound 51],5 ± 1.4 µM,17 ± 3.5 µM,212 ± 54 µM,> 250 µM,> 250 µM,5 ± 1.4 µM,5 ± 1.4 µM,39 µM,40 µM,24 ± 6.3 µM,13 ± 6.6 µM,9 ± 4.2 µM,25 ± 5 µM,25 ± 7.1 µM,15 µM,> 100 µM,11 ± 6.4 µM,≥ 100 µM,EC50 [8]: 12 µM; EC50 [10]: 9.5 ± 2.1 µM
"N[C@H]1C(=O)N[C@@H]2Cc3ccc(c(Cl)c3)Oc3cc4cc(c3O)Oc3ccc(cc3Cl)[C@@H](O)[C@@H]3NC(=O)[C@H](NC(=O)[C@@H]4NC(=O)[C@@H](NC2=O)c2cc(O)cc(c2)Oc2cc1ccc2O)c1ccc(O)c(c1)-c1c(O)cc(O)cc1[C@@H](C(=O)O)NC3=O [Compound 112, Teicoplanin aglycon]",17 ± 3.5 µM,20 µM,> 500 µM,> 500 µM,> 500 µM,–,–,–,–,–,–,–,–,–,–,–,–,–,CC50 (HEL cells [11]; anti-CMV table): > 200 µM; EC50 (CMV; [20]): 32 µM; IC50 (human lymphocyte CEM; read-out: IC50 (toxicity in cell culture)): > 500 µM; EC50 (HIV [13]): 17 to 20 µM; MTC (HEL) (HEL cells [12]; anti-CMV table): ≧20-200 μM
COC(=O)C1NC(=O)C2NC(=O)C(NC(=O)C(NC(=O)OC(C)(C)C)c3cc(Oc4ccc(CC(NC(=O)OCc5ccccc5)C(=O)O)cc4Cl)c(O)c(c3)Oc3ccc(cc3Cl)C2O)c2ccc(O)c(c2)-c2c(O)cc(O)cc21 (stereo not drawn) [Compound 170],–,–,–,–,–,–,–,–,–,–,–,–,–,–,–,–,–,–,"CC50 (in vitro [14]): > 100 µM; EC50 [5, 21]: 32 µM; CC50 (in vitro [15]): > 100 µM; EC50 (FCV; Felis catus): 23 µM"
NC1Cc2ccc(c(Cl)c2)Oc2cc3cc(c2O)Oc2ccc(cc2Cl)C(O)C2NC(=O)C(NC(=O)C3NC(=O)C(c3cc(O)cc(Oc4cc(C5NC(=S)N(c6ccccc6)C5=O)ccc4O)c3)NC1=O)c1ccc(O)c(c1)-c1c(O)cc(O)cc1C(C(=O)O)NC2=O (stereo not drawn) [Compound 171],–,–,–,–,–,–,–,–,–,–,–,–,–,–,–,–,–,–,"CC50 (in vitro [14]): > 100 µM; EC50 [5, 21]: 29 µM; CC50 (in vitro [15]): > 100 µM"
NC1C(=O)NC2Cc3ccc(c(Cl)c3)Oc3cc4cc(c3O)Oc3ccc(cc3Cl)C(O)C(C(=O)O)NC(=O)C(c3ccc(O)c(-c5c(O)cc(O)cc5C(N)C(=O)O)c3)NC(=O)C4NC(=O)C(NC2=O)c2cc(O)cc(c2)Oc2cc1ccc2O (stereo not drawn) [Compound 172],–,–,–,–,–,–,–,–,–,–,–,–,–,–,–,–,–,–,"CC50 (in vitro [14]): > 100 µM; EC50 [5, 21]: 38 µM; CC50 (in vitro [15]): > 100 µM; EC50 (FCV; Felis catus): ≥ 100 µM"
"Cc1ccnc2c1NC(=O)c1cccnc1N2C1CC1 [nevirapine, reference compound]",–,–,–,–,–,–,–,–,–,–,–,–,–,–,–,–,–,–,selection of resistant virus strains (HIV [3]): easily resulted in the emergence
